Test results taken from article PMC9228270, “Design, Synthesis, In Silico Studies and Inhibitory Activity towards Bcr-Abl, BTK and FLT3-ITD of New 2,6,9-Trisubstituted Purine Derivatives as Potential Agents for the Treatment of Leukaemia” (Pharmaceutics, 2022).
Where two headings read alike, the source gives them in different places.

What was measured:
[1] = target: T1, BTK (Homo sapiens, UniProt Q06187); experiment: Recombinant kinase radioassay, BTK; assay type: biochemical
T1 construct: purchased ProQinase
Experimental: (§1) Recombinant kinase inhibition was measured using standard radioassay. Bcr-Abl1 and Cdk-2/cyclin E kinases were produced in-house, FLT3-ITD and BTK were purchased from ProQinase. The kinases were assayed with suitable substrates (500 µM peptide […] for Abl, 1 mg/mL histone H1 for Cdk-2, 100 µM poly (Glu:Tyr; 4:1)) in the presence of ATP (1 µM for Bcr-Abl, 15 µM for Cdk-2 and BTK), 0.05 µCi [γ-^33P]ATP and the test compound in reaction buffer (60 mM HEPES-NaOH, pH 7.5, 3 mM MgCl2, 3 mM MnCl2, 3 µM Na orthovanadate, 1.2 mM DTT, 2.5 µg/50 µL PEG20.000). The reactions were stopped by adding 3% aq. H3PO4. P-81 phosphocellulose (Whatman) was used to separate phosphorylated substrates. Kinase activity was quantified using a FLA-7000 digital image analyser.

[2] = target: T2, FLT3-ITD (Homo sapiens, UniProt P36888, ITD); experiment: Recombinant kinase radioassay, FLT3-ITD; assay type: biochemical
T2 sequence (P36888 27-993): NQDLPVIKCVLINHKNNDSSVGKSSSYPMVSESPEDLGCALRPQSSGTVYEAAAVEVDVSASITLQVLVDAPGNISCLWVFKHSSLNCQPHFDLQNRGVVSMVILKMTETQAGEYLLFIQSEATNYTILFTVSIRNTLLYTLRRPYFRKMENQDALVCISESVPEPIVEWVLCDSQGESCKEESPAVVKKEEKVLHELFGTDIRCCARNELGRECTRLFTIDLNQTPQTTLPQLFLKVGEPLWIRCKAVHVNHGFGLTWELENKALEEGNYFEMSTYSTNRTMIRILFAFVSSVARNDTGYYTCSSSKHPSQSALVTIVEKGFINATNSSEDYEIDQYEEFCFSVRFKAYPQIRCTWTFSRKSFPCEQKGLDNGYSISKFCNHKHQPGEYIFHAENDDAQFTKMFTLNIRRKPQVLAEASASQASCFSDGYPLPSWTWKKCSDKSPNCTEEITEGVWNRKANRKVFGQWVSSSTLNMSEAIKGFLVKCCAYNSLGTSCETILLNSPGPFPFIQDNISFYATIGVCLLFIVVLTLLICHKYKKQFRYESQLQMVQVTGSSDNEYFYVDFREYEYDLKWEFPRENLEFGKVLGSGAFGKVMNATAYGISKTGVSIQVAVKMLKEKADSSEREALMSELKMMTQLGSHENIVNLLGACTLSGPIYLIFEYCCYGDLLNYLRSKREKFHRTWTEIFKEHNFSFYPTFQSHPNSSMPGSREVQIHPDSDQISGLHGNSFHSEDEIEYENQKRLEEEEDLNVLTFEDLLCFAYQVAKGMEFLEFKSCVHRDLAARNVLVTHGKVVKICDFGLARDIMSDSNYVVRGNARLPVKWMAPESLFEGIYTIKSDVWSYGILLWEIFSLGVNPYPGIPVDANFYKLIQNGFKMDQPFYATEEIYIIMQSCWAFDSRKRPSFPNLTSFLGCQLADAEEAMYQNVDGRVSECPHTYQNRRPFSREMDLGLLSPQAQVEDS
Experimental: as §1

[3] = target: Bcr-Abl1 (Homo sapiens, UniProt P00519); experiment: Recombinant kinase radioassay, Abl; assay type: biochemical; conditions: ATP 1 µM, at least three independent experiments, range 0.01–100 µM
Experimental: as §1

[4] = target: T3, Cdk-2/cyclin E (Homo sapiens, UniProt P24941); experiment: Recombinant kinase radioassay, Cdk-2/cyclin E; assay type: biochemical; conditions: ATP 15 µM, at least three independent experiments, range 0.01–100 µM
T3 construct: made in house
Experimental: as §1

[5] = system: K562; experiment: Cytotoxicity assay (resazurin), K562; assay type: cell-based; conditions: Homo sapiens, 72 h, three independent experiments, range 0.1 to 25 µM
Experimental: (§2) Cytotoxicity assays for the purines were quantified using the resazurin method, a dye to measure redox reactions occurring in the mitochondria of live cells. The cells were treated by tested compounds (in triplicate, six different doses) for 72 h.

[6] = system: HL-60; experiment: Cytotoxicity assay (resazurin), HL-60; assay type: cell-based; conditions: Homo sapiens, 72 h, three independent experiments, range 0.1 to 25 µM
Experimental: as §2

[7] = system: MV4-11; experiment: Cytotoxicity assay (resazurin), MV4-11; assay type: cell-based; conditions: Homo sapiens, 72 h, three independent experiments, range 0.1 to 25 µM
Experimental: as §2

[8] = system: Ramos; experiment: Cytotoxicity assay (resazurin), Ramos; assay type: cell-based; conditions: Homo sapiens, 72 h, three independent experiments, range 0.1 to 25 µM
Experimental: as §2

[9] = system: CEM; experiment: Cytotoxicity assay (resazurin), CEM; assay type: cell-based; conditions: Homo sapiens, CCRF-CEM, 72 h, three independent experiments, range 0.1 to 25 µM
Experimental: as §2

[10] = -log IC50 in molar concentration, Table S3, read-out: Experimental pIC50, CoMFA BTK (converted)
[11] = -log IC50 in molar concentration, Table S3, read-out: Experimental pIC50, CoMFA FLT3 (converted)
[12] = recombinant kinase, radioassay, ATP 15 µM, at least three independent experiments, range 0.01–100 µM, read-out: IC50 BTK
[13] = recombinant kinase, radioassay, at least three independent experiments, range 0.01–100 µM, read-out: IC50 FLT3-ITD

Sequence of Bcr-Abl1 (P00519 27-1130): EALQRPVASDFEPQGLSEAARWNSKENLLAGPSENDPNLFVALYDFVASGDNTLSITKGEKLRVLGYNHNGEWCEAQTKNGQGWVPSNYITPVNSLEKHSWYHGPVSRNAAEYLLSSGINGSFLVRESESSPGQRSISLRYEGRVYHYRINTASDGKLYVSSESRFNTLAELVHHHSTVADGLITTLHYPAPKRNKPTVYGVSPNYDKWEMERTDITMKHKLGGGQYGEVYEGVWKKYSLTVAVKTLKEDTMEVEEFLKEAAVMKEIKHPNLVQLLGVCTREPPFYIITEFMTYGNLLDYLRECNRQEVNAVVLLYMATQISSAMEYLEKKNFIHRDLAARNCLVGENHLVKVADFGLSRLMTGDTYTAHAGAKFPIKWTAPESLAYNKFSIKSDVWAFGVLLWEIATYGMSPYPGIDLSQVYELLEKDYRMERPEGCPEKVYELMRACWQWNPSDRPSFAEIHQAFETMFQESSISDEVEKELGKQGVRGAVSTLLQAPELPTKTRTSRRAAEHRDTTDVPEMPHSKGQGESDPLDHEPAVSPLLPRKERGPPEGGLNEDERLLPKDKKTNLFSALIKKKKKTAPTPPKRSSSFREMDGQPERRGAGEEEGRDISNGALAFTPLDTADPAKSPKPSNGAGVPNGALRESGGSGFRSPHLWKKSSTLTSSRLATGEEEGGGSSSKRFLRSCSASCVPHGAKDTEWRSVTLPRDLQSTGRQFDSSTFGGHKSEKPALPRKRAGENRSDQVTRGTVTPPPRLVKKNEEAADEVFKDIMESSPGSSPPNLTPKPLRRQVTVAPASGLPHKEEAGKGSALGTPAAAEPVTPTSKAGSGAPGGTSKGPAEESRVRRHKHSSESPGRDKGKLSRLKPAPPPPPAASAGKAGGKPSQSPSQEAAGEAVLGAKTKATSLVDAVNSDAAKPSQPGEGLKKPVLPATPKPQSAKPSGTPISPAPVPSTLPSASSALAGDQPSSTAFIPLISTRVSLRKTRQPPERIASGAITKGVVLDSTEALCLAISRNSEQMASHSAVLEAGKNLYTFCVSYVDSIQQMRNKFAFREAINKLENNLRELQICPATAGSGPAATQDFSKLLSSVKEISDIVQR
T1 sequence (Q06187 whole entry): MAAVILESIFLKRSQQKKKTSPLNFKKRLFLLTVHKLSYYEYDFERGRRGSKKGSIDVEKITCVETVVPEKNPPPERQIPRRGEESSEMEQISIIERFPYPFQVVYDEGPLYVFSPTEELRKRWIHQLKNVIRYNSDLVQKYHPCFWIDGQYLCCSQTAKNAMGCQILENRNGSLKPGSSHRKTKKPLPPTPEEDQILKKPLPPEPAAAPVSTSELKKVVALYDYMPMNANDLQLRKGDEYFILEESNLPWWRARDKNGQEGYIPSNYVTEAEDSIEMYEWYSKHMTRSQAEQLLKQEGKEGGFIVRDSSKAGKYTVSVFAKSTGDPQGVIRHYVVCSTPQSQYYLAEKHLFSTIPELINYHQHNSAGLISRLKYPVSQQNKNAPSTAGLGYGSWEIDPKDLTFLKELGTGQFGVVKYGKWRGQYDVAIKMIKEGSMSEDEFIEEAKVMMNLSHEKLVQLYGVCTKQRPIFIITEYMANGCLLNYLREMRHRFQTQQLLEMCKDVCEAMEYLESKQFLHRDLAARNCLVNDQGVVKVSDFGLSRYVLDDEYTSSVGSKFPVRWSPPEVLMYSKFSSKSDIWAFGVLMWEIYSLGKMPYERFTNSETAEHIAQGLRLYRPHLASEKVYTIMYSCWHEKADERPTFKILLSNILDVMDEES

SMILES	IC50 [1, 10] [nM]	IC50 [2, 11] [nM]	IC50 [3] [nM]	IC50 [1, 12] [nM]	IC50 [2, 13] [nM]	IC50 [4] [nM]	GI50 [5] [nM]	GI50 [6] [nM]	GI50 [7] [nM]	GI50 [8] [nM]	GI50 [9] [nM]	melting point [°C]
Clc1nc(Cl)c2cc[nH]c2n1 [Compound 9]	938	534	–	–	–	–	–	–	–	–	–	–
Clc1nc(Cl)c2ccn(CC3CC3)c2n1 [Compound 10]	912	367	–	–	–	–	–	–	–	–	–	–
CCOC(=O)c1ccc(Nc2nc(Nc3ccc(N4CCN(C)CC4)cc3)nc3c2ncn3CC2CC2)cc1 [Compound 4k, Ethyl-4-((9-(cyclopropylmethyl)-2-((4-(4-methylpiperazin-1-yl)phenyl)amino)-9H-purin-6-yl)amino)benzoate]	–	–	40 ± 10	1160 ± 180	1160	> 50000	2700 ± 1310	1930 ± 170	2430 ± 590	12300 ± 1580	13900 ± 1120	–
CCCCCCCCn1cnc2c(Nc3ccc(F)c(F)c3)nc(Nc3ccc(N4CCN(C)CC4)cc3)nc21 [Compound 5l, N^6-(3,4-Difluorophenyl)-N^2-(4-(4-methylpiperazin-1-yl)phenyl)-9-octyl-9H-purine-2,6-diamine]	–	–	84500 ± 5900	580 ± 330	> 20000	32200 ± 1330	11800 ± 2190	1510 ± 1490	16300 ± 4990	18800 ± 2110	> 25000	–
CN1CCN(c2ccc(Nc3nc(Nc4cccc(C#N)c4)c4ncn(CC5CC5)c4n3)cc2)CC1 [Compound 4f, 3-((9-(Cyclopropylmethyl)-2-((4-(4-methylpiperazin-1-yl)phenyl)amino)-9H-purin-6-yl)amino)benzonitrile]	–	–	70 ± 10	1430 ± 290	930	23600 ± 1150	3680 ± 780	1560 ± 880	1050 ± 100	5860 ± 3640	–	–
CN1CCN(c2ccc(Nc3nc(Nc4ccc(OC(F)(F)F)c([N+](=O)[O-])c4)c4ncn(CC5CC5)c4n3)cc2)CC1 [Compound 4o, 9-(Cyclopropylmethyl)-N^2-(4-(4-methylpiperazin-1-yl)phenyl)-N^6-(3-nitro-4-(trifluoromethoxy)phenyl)-9H-purine-2,6-diamine]	–	–	440 ± 120	5030 ± 990	2670	12600 ± 2120	2600 ± 1250	1680 ± 10	1490 ± 330	4460 ± 380	14800 ± 1320	144 to 145
CN1CCN(C(=O)c2ccc(Nc3nc(Nc4ccc(F)c(F)c4)c4ncn(CC5CC5)c4n3)cc2)CC1 [Compound 8c, (4-((9-(Cyclopropylmethyl)-6-((3,4-difluorophenyl)amino)-9H-purin-2-yl)amino)phenyl)(4-methylpiperazin-1-yl)methanone]	–	–	940 ± 220	2730 ± 170	1810	14200 ± 1240	6070 ± 80	2390 ± 890	1520 ± 310	14690 ± 20	20700 ± 4070	142 to 143
CN1CCN(C(=O)c2ccc(N)cc2)CC1 [Compound 7]	1360	1250	–	–	–	–	–	–	–	–	–	–
CC(C)CCn1cnc2c(Nc3ccc(F)c(F)c3)nc(Nc3ccc(N4CCN(C)CC4)cc3)nc21 [Compound 5c, N^6-(3,4-Difluorophenyl)-9-isopentyl-N^2-(4-(4-methylpiperazin-1-yl)phenyl)-9H-purine-2,6-diamine]	–	–	2280 ± 800	1890 ± 170	790	62500 ± 15000	9400 ± 780	1590 ± 470	1430 ± 560	8870 ± 940	16800 ± 3340	–
